What was measured:
[1] = Partition coefficients between PBS and octan-1-ol; format: physicochemical; details: means ± SE of 3 determinations
Protocol: (§1) RP-HPLC was performed using a Gilson 321 pump with a C18 column (Jupiter 300 Å, Phenomenex) with a Widepore C18 guard column (Phenomenex). Samples (1 ml) were injected through a 0.22 μm PVDF filter (Millex, Millipore). HPLC buffer A [0.1% TFA in water] and HPLC buffer B (90% acetonitrile and 0.1% TFA) were used and a gradient was run at 1 ml/min at room temperature as follows: 0-2 min—5% B; 2-17 min—5-100% B; 17-19 min—100% B; 19-22 min—100-5% B. Peaks were detected by absorbance at 220 nm (UV/Vis 151, Gilson) and by fluorescence (excitation and emission wavelengths of 344 and 433 nm; RF-10AXL, Shimadzu). Partition coefficients between PBS and octan-1-ol were determined as previously described.

[2] = Stability of compounds assessed by RP-HPLC; format: physicochemical; details: 37° C., one week, RP-HPLC
Protocol: as §1
The syntheses of MitoG, its predicted quinoxaline products upon reaction with methylglyoxal and glyoxal, and their deuterated versions are summarized in FIG. 2. As expected, the spectrum of MitoG was a summation of those of the phenylenediamine, hexyloxyphenylenediamine (HP), and a simple alkylTPP salt.
The expected products of the reaction of MitoG with methylglyoxal (MQE) and glyoxal (QE) were synthesized and have UV/Vis absorption spectra distinct from that of MitoG (FIG. 3B). Both QE and MQE were fluorescent, while MitoG was not (FIG. 3C). The three compounds were resolved by RP-HPLC (FIG. 3D) although the MQE regioisomers (MQE1, MQE2; FIG. 1B) were not distinguished. Both MQE and QE were stable after one week at 37° C. as assessed by RP-HPLC (data not shown). It was concluded that MitoG is sufficiently stable for biological experiments involving trapping of glyoxal and methylglyoxal within mitochondria in cells and in vivo, and the reaction products MQE and QE were both robustly stable for chemical isolation and subsequent LC-MS/MS analyses.

[3] = 25° C., literature [49]; cited from earlier work

| SMILES | logD ([1]; octan-1-ol/PBS, read-out: Partition coefficient (converted)) | stability after one week [2] | Partition coefficient [1] | rate constant for reaction with methylglyoxal, reported value [3] [M⁻¹ s⁻¹] |
| --- | --- | --- | --- | --- |
| O=C([O-])C(F)(F)F.c1ccc([P+](CCCCCCOc2ccc3nccnc3c2)(c2ccccc2)c2ccccc2)cc1 [QE, (6-(6-Quinoxalinyloxy)hexyl)triphenylphosphonium trifluoroacetate] | 1.13 | stable | – | – |
| Cc1cnc2cc(OCCCCCC[P+](c3ccccc3)(c3ccccc3)c3ccccc3)ccc2n1.O=C([O-])C(F)(F)F [MQE, (6-(6-(2-Methyl-quinoxalinyloxy))hexyl)triphenylphosphonium trifluoroacetate] | – | stable | 12.3 ± 0.5 | – |
| Nc1ccccc1N [o-phenylenediamine] | – | – | – | 1.7 ± 0.3 |

— patent US9963474B2, “Mitochondria-targeted dicarbonyl sequestering compounds” (MEDICAL RESEARCH COUNCIL, priority 2013, dated 2018)
